Experimental data: patent US20180000085A1, “USE OF PICOLINAMIDE COMPOUNDS WITH FUNGICIDAL ACTIVITY” (DOW AGROSCIENCES LLC, priority 2014, published 2018)

Columns and labels:
[1] = test system: Puccinia triticina; assay: Wheat brown rust (PUCCRT) disease control on wheat seedlings; assay type: in vivo; set-up: key to PUCCRT 3DC, HV activity at 100 ppm (% control rating) / PUCCRT disease control, 3DC / PUCCRT 1DP disease control rating, HV activity / PUCCRT 3DC disease control rating, HV activity / PUCCRT 3DC, LV activity at 125.1 g/H (% Control rating) / PUCCRT 1DP, LV activity at 125.1 g/H (% Control rating) / PUCCRT 3DC disease control rating, LV activity at 125.1 g/H / PUCCRT 1DP disease control rating, LV activity at 125.1 g/H / PUCCRT 3DC disease control rating, HV activity at 100 ppm / PUCCRT 1DP disease control rating, HV activity at 100 ppm / HV activity at 100 ppm PUCCRT 3DC (disease control rating) / LV activity at 125.1 g/H PUCCRT 1DP (disease control rating) / LV activity at 125.1 g/H PUCCRT 3DC (disease control rating): A: > 80; B: ≤ 80; C: Not Tested; D: No Activity Observed in the Reported Assay; conditions: HV application at 100 ppm, wheat brown rust; for PUCCRT 1DP disease control rating, HV activity: 1 Day Protectant; for PUCCRT 3DC disease control rating, HV activity: 3 Day Curative
[2] = test system: Zymoseptoria tritici; assay: Leaf blotch of wheat (SEPTTR) disease control on wheat seedlings; assay type: in vivo; set-up: key to SEPTTR 1DP, HV activity at 100 ppm (% control rating) / SEPTTR 3DC, HV activity at 100 ppm (% control rating) / SEPTTR disease control, 1DP / SEPTTR disease control, 3DC / SEPTTR 1DP disease control rating, HV activity / SEPTTR 3DC disease control rating, HV activity / SEPTTR 3DC, LV activity at 125.1 g/H (% Control rating) / SEPTTR 1DP, LV activity at 125.1 g/H (% Control rating) / SEPTTR 1DP disease control rating, LV activity at 125.1 g/H / SEPTTR 3DC disease control rating, LV activity at 125.1 g/H / SEPTTR 3DC disease control rating, HV activity at 100 ppm / SEPTTR 1DP disease control rating, HV activity at 100 ppm / HV activity at 100 ppm SEPTTR 3DC (disease control rating) / HV activity at 100 ppm SEPTTR 1DP (disease control rating) / LV activity at 125.1 g/H SEPTTR 1DP (disease control rating) / LV activity at 125.1 g/H SEPTTR 3DC (disease control rating): A: > 80; B: ≤ 80; C: Not Tested; D: No Activity Observed in the Reported Assay; conditions: HV application at 100 ppm, wheat leaf blotch; for SEPTTR 1DP disease control rating, HV activity: 1 Day Protectant; for SEPTTR 3DC disease control rating, HV activity: 3 Day Curative

| Structure (SMILES) | PUCCRT 1DP disease control rating, HV activity [1] | PUCCRT 3DC disease control rating, HV activity [1] | SEPTTR 1DP disease control rating, HV activity [2] | SEPTTR 3DC disease control rating, HV activity [2] |
| --- | --- | --- | --- | --- |
| COc1ccnc(C(=O)N[C@@H](C)C(=O)O[C@H](C)[C@@H](Oc2ccccc2)c2ccccc2)c1O [Cmpd 350] | D | A (> 80) | D | B (≤ 80) |
| COc1ccnc(C(=O)N[C@H](C)C(=O)O[C@H](C)[C@@H](Oc2ccccc2)C(C)C)c1O [Cmpd 351] | D | D | B (≤ 80) | D |
| COc1ccnc(C(=O)N[C@H](C)C(=O)O[C@H](C)[C@@H](Oc2ccccc2)c2ccccc2)c1O [Cmpd 352] | D | D | D | B (≤ 80) |
| CCC(CC)[C@@H](OCC1CC1)[C@H](C)OC(=O)[C@H](C)NC(=O)c1nccc(OC)c1O [Cmpd 353] | A (> 80) | A (> 80) | B (≤ 80) | B (≤ 80) |
| CCC(CC)[C@@H](OCC(C)C)[C@H](C)OC(=O)[C@H](C)NC(=O)c1nccc(OC)c1O [Cmpd 354] | B (≤ 80) | A (> 80) | B (≤ 80) | B (≤ 80) |
| COc1ccnc(C(=O)N[C@@H](C)C(=O)O[C@@H](C)[C@@H](CC(C)C)Oc2ccccc2)c1O [Cmpd 355] | A (> 80) | A (> 80) | A (> 80) | A (> 80) |
| COc1ccnc(C(=O)N[C@@H](C)C(=O)O[C@@H](C)[C@H](Oc2ccccc2)C2CCCC2)c1O [Cmpd 356] | A (> 80) | A (> 80) | A (> 80) | B (≤ 80) |
| COc1ccnc(C(=O)N[C@@H](C)C(=O)O[C@@H](C)[C@H](Oc2cccc(Cl)c2)C(C)C)c1O [Cmpd 357] | A (> 80) | A (> 80) | A (> 80) | A (> 80) |
| COc1ccnc(C(=O)N[C@@H](C)C(=O)O[C@@H](C)[C@H](Oc2ccc(Cl)cc2Cl)C(C)C)c1O [Cmpd 358] | B (≤ 80) | B (≤ 80) | B (≤ 80) | B (≤ 80) |
| COc1ccnc(C(=O)N[C@@H](C)C(=O)O[C@@H](C)[C@H](Oc2ccc(Cl)cc2)C(C)C)c1O [Cmpd 359] | A (> 80) | A (> 80) | A (> 80) | A (> 80) |
| CCC(CC)C(Oc1ccc(Cl)cc1Cl)C(C)OC(=O)C(C)NC(=O)c1nccc(OC)c1O (stereo not shown) [Cmpd 381] | D | D | D | D |
| CCC(CC)C(Oc1cc(F)ccc1F)C(C)OC(=O)C(C)NC(=O)c1nccc(OC)c1O (stereo not shown) [Cmpd 382] | A (> 80) | A (> 80) | D | B (≤ 80) |
| CCC(CC)C(Oc1cc(F)cc(Cl)c1)C(C)OC(=O)C(C)NC(=O)c1nccc(OC)c1O (stereo not shown) [Cmpd 383] | A (> 80) | A (> 80) | B (≤ 80) | A (> 80) |
| CCC(CC)C(Oc1ccccc1Cl)C(C)OC(=O)C(C)NC(=O)c1nccc(OC)c1O (stereo not shown) [Cmpd 384] | A (> 80) | A (> 80) | B (≤ 80) | A (> 80) |
| CCC(CC)C(Oc1ccc(C(F)(F)F)cc1)C(C)OC(=O)C(C)NC(=O)c1nccc(OC)c1O (stereo not shown) [Cmpd 385] | B (≤ 80) | A (> 80) | D | D |
| CCC(CC)C(Oc1cccc(-c2ccccc2)c1)C(C)OC(=O)C(C)NC(=O)c1nccc(OC)c1O (stereo not shown) [Cmpd 386] | B (≤ 80) | B (≤ 80) | D | D |
| CCC(CC)C(Oc1ccc(-c2ccccc2)cc1)C(C)OC(=O)C(C)NC(=O)c1nccc(OC)c1O (stereo not shown) [Cmpd 387] | B (≤ 80) | D | D | D |
| COc1ccnc(C(=O)NC(C)C(=O)OC(C)C(Oc2ccc(-c3ccccc3)cc2)C(C)C)c1O (stereo not shown) [Cmpd 388] | A (> 80) | B (≤ 80) | A (> 80) | B (≤ 80) |
| COc1ccnc(C(=O)NC(C)C(=O)OC(C)C(Oc2cccc(-c3ccccc3)c2)C(C)C)c1O (stereo not shown) [Cmpd 389] | A (> 80) | D | B (≤ 80) | B (≤ 80) |
| COc1ccnc(C(=O)NC(C)C(=O)OC(C)C(Oc2cccc(F)c2)C(C)C)c1O (stereo not shown) [Cmpd 390] | A (> 80) | A (> 80) | B (≤ 80) | A (> 80) |
| COc1ccnc(C(=O)NC(C)C(=O)OC(C)C(Oc2ccc(F)cc2)C(C)C)c1O (stereo not shown) [Cmpd 391] | A (> 80) | A (> 80) | A (> 80) | A (> 80) |
| COc1ccnc(C(=O)NC(C)C(=O)OC(C)C(Oc2cc(F)ccc2F)C(C)C)c1O (stereo not shown) [Cmpd 392] | A (> 80) | A (> 80) | A (> 80) | A (> 80) |
| COc1ccnc(C(=O)NC(C)C(=O)OC(C)C(Oc2cc(F)cc(Cl)c2)C(C)C)c1O (stereo not shown) [Cmpd 393] | A (> 80) | B (≤ 80) | B (≤ 80) | A (> 80) |
| COc1ccnc(C(=O)NC(C)C(=O)OC(C)C(Oc2ccc(C(F)(F)F)cc2)C(C)C)c1O (stereo not shown) [Cmpd 394] | B (≤ 80) | B (≤ 80) | A (> 80) | B (≤ 80) |
| CCC(C)C(NC(=O)c1nccc(OC)c1O)C(=O)OC(C)C(Oc1cc(F)ccc1F)C(C)C (stereo not shown) [Cmpd 395] | B (≤ 80) | D | B (≤ 80) | B (≤ 80) |
| CCC(C)C(NC(=O)c1nccc(OC)c1O)C(=O)OC(C)C(Oc1ccc(C(F)(F)F)cc1)C(C)C (stereo not shown) [Cmpd 396] | B (≤ 80) | D | B (≤ 80) | B (≤ 80) |
| COc1ccnc(C(=O)NC(C)C(=O)OC(C)C(Oc2cccc3ccccc23)C(C)C)c1O (stereo not shown) [Cmpd 397] | A (> 80) | A (> 80) | B (≤ 80) | B (≤ 80) |
| COc1ccnc(C(=O)NC(C)C(=O)OC(C)C(Oc2ccc3ccccc3c2)C(C)C)c1O (stereo not shown) [Cmpd 398] | A (> 80) | B (≤ 80) | D | B (≤ 80) |
